Results taken from US20040131545A1, “Amyloid plaque aggregation inhibitors and diagnostic imaging agents” (Trustees of the University of Pennsylvania, priority 2001, published 2004).
Each block holds one compound with its values, some of them ahead of it.

How the values were obtained:
fibrillar AP aggregates = fibrillar AP aggregates (Homo sapiens, UniProt P05067); conditions: Mathis et al. 1997; read-out: inhibition constants (K′) for binding to fibrillar AP aggregates; cited from earlier work
Sequence of fibrillar AP aggregates (P05067 672-711): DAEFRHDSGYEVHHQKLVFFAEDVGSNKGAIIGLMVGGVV

aggregates of Aβ(1-40) = molecular target: T1, aggregates of Aβ(1-40) (Homo sapiens, UniProt P05067); test: Inhibition of [125I]3 binding to aggregated Aβ(1-40) peptide in solution; conditions: 25° C.; mean±SEM of three independent experiments; read-out: Inhibition constants (Ki) on ligand binding to aggregates of Aβ(1-40) vs [^125I]3
T1 construct: The solid forms of peptides Aβ(1-40) and Aβ(1-42) were purchased; purchased Bachem (King of Prussia, Pa.)
T1 sequence (P05067 672-711 limits assumed): as the sequence (P05067 672-711) above
Description: (§1) The solid forms of peptides Aβ(1-40) and Aβ(1-42) were purchased from Bachem (King of Prussia, Pa.). Aggregation of peptides were carried out by gently dissolving the peptide [0.5 mg/mL for Aβ(1-40) and 0.25 mg/mL for Aβ (1-42) in a buffer solution (pH 7.4) containing 10 mM sodium phosphate and 1 mM EDTA. The solutions were incubated at 37° C. for 36-42 h with gentle and constant shaking. Binding studies were carried out in 12×75 mm borosilicate glass tubes according to the procedure described with some modifications (Klunk, W. E., et al., Biol. Psychiatry 35:627 (1994)). Aggregated fibrils (10-50 nM in the final assay mixture) were added to the mixture containing […] of radioligands (0.01-0.5 nM) in 40% EtOH and 10% EtOH in a final volume of 1 mL for saturation studies. […] For inhibition studies, 1 mL of the reaction mixture contained […] of inhibitors (10-5-10-10 M in 10% EtOH) and 0.05 nM radiotracer in 40% EtOH. The mixture was incubated at room temperature for 3 h and the bound and the free radioactivity were separated by vacuum filtration through Whatman GF/B filters using a Brandel M-24R cell harvester followed by 2×3 mL washes of 10% ethanol at room temperature. Filters containing the bound I-125 ligand were counted in a gamma counter (Packard 5000) with 70% counting efficiency. The results of saturation and inhibition experiments were subjected to nonlinear regression analysis using software EBDA52 by which Kd and Ki values were calculated.
(§2) Values are the mean±SEM of three independent experiments, each in duplicates.

aggregates of Aβ(1-42) = molecular target: T2, aggregates of Aβ(1-42) (Homo sapiens, UniProt P05067); test: Inhibition of [125I]3 binding to aggregated Aβ(1-42) peptide in solution; conditions: 25° C.; mean±SEM of three independent experiments; read-out: Inhibition constants (Ki) on ligand binding to aggregates of Aβ(1-42) vs [^125I]3
T2 construct: The solid forms of peptides Aβ(1-40) and Aβ(1-42) were purchased; purchased Bachem (King of Prussia, Pa.)
T2 sequence (P05067 672-713 limits assumed): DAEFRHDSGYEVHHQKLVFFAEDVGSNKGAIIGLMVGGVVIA
Description: as §1, §2

[1] = Partition coefficient determination (1-octanol/buffer); format: physicochemical; conditions: 1-octanol / 0.1 M phosphate buffer pH 7.4, [125I]tracer
Description: The test tube was vortexed for 3 min at room temperature, followed by centrifugation for 5 min. Two weighed samples (0.5 g each) from the 1-octanol and buffer layers were counted in a well counter. The partition coefficient was determined by calculating the ratio of cpm/g of 1-octanol to that of buffer. Samples from the 1-octanol layer were re-partitioned until consistent partitions of coefficient values were obtained. The measurement was done in triplicate and repeated three times.

[2] = In vivo biodistribution in normal mice after iv injection; parameters: species or system ICR mice; conditions: for Initial brain uptake / time at which brain uptake peaked / maximum brain uptake: mice; for Initial brain uptake: after an iv injection; for time at which brain uptake peaked / maximum brain uptake / Blood / Brain / Heart / Liver: iv; for maximum brain uptake: peak at 60 min; for Blood / Brain / Heart / Liver: normal mice
Description: While under ether anesthesia, 0.15 mL of a saline solution containing labeled agents ([…]) was injected directly into the tail vein of ICR mice (2-3 month-old, average weight 20-30 g). The mice were sacrificed by cardiac excision at various time points post injection. The organs of interest were removed and weighed, and the radioactivity was counted with an automatic gamma counter (Packard 5000). The percentage dose per organ was calculated by a comparison of the tissue counts to suitably diluted aliquots of the injected material. Total activities of blood and muscle were calculated under the assumption that they were 7% and 40% of the total body weight, respectively.

Compound: O=C(O)c1cc(/N=N/c2ccc(-c3ccc(/N=N/c4ccc(O)c(C(=O)O)c4)cc3)cc2)ccc1O [Chrysamine G, reference compound]
Ki (fibrillar AP aggregates): 370 nM
Ki (aggregates of Aβ(1-40)): > 1000 nM
Ki (aggregates of Aβ(1-42)): > 2000 nM

Compound: CN(C)c1ccc(-c2nc3ccc(Br)cc3s2)cc1 [Compound 1, 2-(4′-Dimethylaminophenyl)-6-bromobenzothiazole]
Ki (aggregates of Aβ(1-40)): 1.9 ± 0.3 nM
Ki (aggregates of Aβ(1-42)): 0.8 ± 0.3 nM

Compound: CN(C)c1ccc(-c2nc3ccc(I)cc3s2)cc1 [Compound 3, 2-(4′-Dimethylaminophenyl)-6-iodobenzothiazole]
Partition Coefficient (PC) [1]: 70
Initial brain uptake [2]: 0.67 % dose/organ
time at which brain uptake peaked [2]: 60 min
maximum brain uptake [2]: 1.57 % dose/organ
Ki (aggregates of Aβ(1-40)): 0.9 ± 0.2 nM
Ki (aggregates of Aβ(1-42)): 2.2 ± 0.4 nM

Compound: CN1CCN(c2ccc(-c3nc4ccc(Br)cc4s3)cc2)CC1 [Compound 4, 2-[4′-(4″-Methylpiperazin-1-yl)-phenyl]-6-bromobenzothiazole]
Ki (aggregates of Aβ(1-40)): 1.6 ± 0.5 nM
Ki (aggregates of Aβ(1-42)): 5 ± 0.8 nM

Compound: CN(C)c1ccc(-c2nc3ccc([125I])cc3s2)cc1 [[^125I] Compound 3]
Blood ([2]; 2 min): 15.74 ± 6.06 % dose/organ
Brain ([2]; 2 min): 0.67 ± 0.11 % dose/organ
Heart ([2]; 2 min): 1.79 ± 0.39 % dose/organ
Liver ([2]; 2 min): 31.62 ± 2.38 % dose/organ
Blood ([2]; 30 min): 3.26 ± 0.05 % dose/organ
Brain ([2]; 30 min): 0.97 ± 0.29 % dose/organ
Heart ([2]; 30 min): 0.20 ± 0.01 % dose/organ
Liver ([2]; 30 min): 10.93 ± 2.34 % dose/organ
Blood ([2]; 60 min (1 hr)): 3.79 ± 0.19 % dose/organ
Brain ([2]; 60 min (1 hr)): 1.57 ± 0.24 % dose/organ
Heart ([2]; 60 min (1 hr)): 0.17 ± 0.02 % dose/organ
Liver ([2]; 60 min (1 hr)): 9.21 ± 3.05 % dose/organ
Blood ([2]; 6 h): 1.44 ± 0.05 % dose/organ
Brain ([2]; 6 h): 0.65 ± 0.11 % dose/organ
Heart ([2]; 6 h): 0.05 ± 0.01 % dose/organ
Liver ([2]; 6 h): 1.52 ± 0.30 % dose/organ
Blood ([2]; 24 h): 0.29 ± 0.09 % dose/organ
Brain ([2]; 24 h): 0.04 ± 0.01 % dose/organ
Heart ([2]; 24 h): 0.01 ± 0.00 % dose/organ
Liver ([2]; 24 h): 0.30 ± 0.07 % dose/organ

Now from value to compound:

Partition Coefficient (PC) [1]: 312
Initial brain uptake [2]: 1.50 % dose/organ
time at which brain uptake peaked [2]: 60 min
maximum brain uptake [2]: 1.89 % dose/organ
Ki (aggregates of Aβ(1-40)): 5.4 ± 0.7 nM
Ki (aggregates of Aβ(1-42)): 6.4 ± 0.7 nM
Compound: CN1CCN(c2ccc(-c3nc4ccc(I)cc4s3)cc2)CC1 [Compound 6a, 2-[4′-(4″-Methylpiperazin-1-yl)-phenyl]-6-iodobenzothiazole]

Blood ([2]; 2 min): 8.02 ± 0.82 % dose/organ
Brain ([2]; 2 min): 1.50 ± 0.10 % dose/organ
Heart ([2]; 2 min): 2.19 ± 0.43 % dose/organ
Liver ([2]; 2 min): 28.84 ± 3.77 % dose/organ
Blood ([2]; 30 min): 5.15 ± 0.23 % dose/organ
Brain ([2]; 30 min): 1.59 ± 0.19 % dose/organ
Heart ([2]; 30 min): 0.69 ± 0.02 % dose/organ
Liver ([2]; 30 min): 21.22 ± 5.86 % dose/organ
Blood ([2]; 60 min (1 hr)): 4.16 ± 0.28 % dose/organ
Brain ([2]; 60 min (1 hr)): 1.89 ± 0.43 % dose/organ
Heart ([2]; 60 min (1 hr)): 0.66 ± 0.06 % dose/organ
Liver ([2]; 60 min (1 hr)): 17.20 ± 2.49 % dose/organ
Blood ([2]; 6 h): 1.49 ± 0.26 % dose/organ
Brain ([2]; 6 h): 1.08 ± 0.08 % dose/organ
Heart ([2]; 6 h): 0.22 ± 0.06 % dose/organ
Liver ([2]; 6 h): 5.79 ± 1.24 % dose/organ
Blood ([2]; 24 h): 0.41 ± 0.09 % dose/organ
Brain ([2]; 24 h): 0.91 ± 0.08 % dose/organ
Heart ([2]; 24 h): 0.08 ± 0.01 % dose/organ
Liver ([2]; 24 h): 3.05 ± 0.87 % dose/organ
Compound: CN1CCN(c2ccc(-c3nc4ccc([125I])cc4s3)cc2)CC1 [[^125I] Compound 6a]
